This passage reports GI50 results from patent publication US10781217B2, “Imidazopyridazine compound” (HANMI PHARMACEUTICAL CO., LTD., priority 2017, dated 2020).

One may read the GI50 as the concentration giving 50% growth inhibition.

The assay has as its system SK-CO-1 cell line. Description: Cell growth inhibition on SK-CO-1 cell line (SRB assay). Type of assay: cell-based. As to conditions: cultured with compound for 3 days, SRB colorimetric test. The protocol:
SK-CO-1 cell line purchased from the American Type Culture Collection (ATCC, USA) was cultured at […] with an EMEM medium (10% FBS, 1% penicillin/streptomycin) under the presence of 5% CO2. The cultured SK-CO-1 cell line was prepared in 5×10^4/100 μl, placed in a 96 well-plate, and cultured for one day. After that, the test compound was stepwise diluted in a ratio of 1/10 from 10 μM to 0.1 nM in the same EMEM medium, and then cultured for 3 days. In order to measure viability of the cell, a sulforhodamine B colorimetric (SRB, sigma Cat. S1402) test method was used. After discarding the medium, 0.1 ml of 10% trichloroacetic acid (TCA, Sigma Cat. T0699) was introduced to each well, and the cell line was fixed for 30 minutes to 1 hour, then washed with distilled water, and exposed in the air to dry the plate. After that, 100 μl of 0.4% SRB solution was introduced to each well, and the cell line was stained for 30 minutes at room temperature, and the plate was washed with distilled water and 1% acetic acid, and then dried in the air. 150 μl of […] trizma base solution was introduced to each well, and after dissolving the solid SRB therein, absorbance was measured at 540 nm using a microplate-reader. The growth inhibition value (GI50) of the cell line was calculated using a GraphPad Prism software.

With “1-(2-(((1^5Z,5Z)-2^5-fluoro-3-aza-1(3,6)-imidazo[1,2-b]pyridazina-2(4,2)pyrimidina-4(1,3)-benzenacyclohexapan-5-en-4^5-yl)oxy)ethyl)piperidin-4-ol [Example 1]”, the GI50 was 21 nM.
